Measurements from ChEMBL document CHEMBL3112421, “Small Macrocycles As Highly Active Integrin α2β1 Antagonists” (ACS Med Chem Lett, 2014).

Legend:
[1] = Permeability across human Caco2 cells; type: ADME, cell-based; details: Caco-2, read-out: permeability
Integrin alpha2/beta1 = Integrin alpha2/beta1 (Homo sapiens, UniProt P05556+P17301); assay: Antagonist activity at recombinant integrin alpha2 beta1 receptor (unknown origin) assessed as inhibition of interaction with biotinylated collagen type-1 after 3 hrs by solid phase ELISA-type assay; type: protein-complex assay
Integrin alpha2/beta1, sequence (P05556 whole entry): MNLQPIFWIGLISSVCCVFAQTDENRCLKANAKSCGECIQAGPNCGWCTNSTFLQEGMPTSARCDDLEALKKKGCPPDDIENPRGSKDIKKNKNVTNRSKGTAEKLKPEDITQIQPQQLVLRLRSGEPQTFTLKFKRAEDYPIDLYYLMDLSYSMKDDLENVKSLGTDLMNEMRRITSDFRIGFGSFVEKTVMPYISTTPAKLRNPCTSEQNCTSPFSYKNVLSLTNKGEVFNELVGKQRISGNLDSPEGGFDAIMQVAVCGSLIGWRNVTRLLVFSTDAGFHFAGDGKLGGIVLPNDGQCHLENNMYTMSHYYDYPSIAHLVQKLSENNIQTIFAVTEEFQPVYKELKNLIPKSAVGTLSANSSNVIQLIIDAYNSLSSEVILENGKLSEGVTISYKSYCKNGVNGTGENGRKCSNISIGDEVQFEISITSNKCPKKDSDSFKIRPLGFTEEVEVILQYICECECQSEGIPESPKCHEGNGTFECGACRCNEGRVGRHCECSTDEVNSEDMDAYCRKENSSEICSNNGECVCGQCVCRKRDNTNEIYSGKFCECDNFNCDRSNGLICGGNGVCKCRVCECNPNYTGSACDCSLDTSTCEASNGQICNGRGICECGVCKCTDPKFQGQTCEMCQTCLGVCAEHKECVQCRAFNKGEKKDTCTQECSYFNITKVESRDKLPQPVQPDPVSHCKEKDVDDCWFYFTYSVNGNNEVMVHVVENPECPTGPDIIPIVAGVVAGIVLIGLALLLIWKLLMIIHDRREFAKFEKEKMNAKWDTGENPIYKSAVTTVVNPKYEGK
Integrin alpha2/beta1, sequence (P17301 whole entry): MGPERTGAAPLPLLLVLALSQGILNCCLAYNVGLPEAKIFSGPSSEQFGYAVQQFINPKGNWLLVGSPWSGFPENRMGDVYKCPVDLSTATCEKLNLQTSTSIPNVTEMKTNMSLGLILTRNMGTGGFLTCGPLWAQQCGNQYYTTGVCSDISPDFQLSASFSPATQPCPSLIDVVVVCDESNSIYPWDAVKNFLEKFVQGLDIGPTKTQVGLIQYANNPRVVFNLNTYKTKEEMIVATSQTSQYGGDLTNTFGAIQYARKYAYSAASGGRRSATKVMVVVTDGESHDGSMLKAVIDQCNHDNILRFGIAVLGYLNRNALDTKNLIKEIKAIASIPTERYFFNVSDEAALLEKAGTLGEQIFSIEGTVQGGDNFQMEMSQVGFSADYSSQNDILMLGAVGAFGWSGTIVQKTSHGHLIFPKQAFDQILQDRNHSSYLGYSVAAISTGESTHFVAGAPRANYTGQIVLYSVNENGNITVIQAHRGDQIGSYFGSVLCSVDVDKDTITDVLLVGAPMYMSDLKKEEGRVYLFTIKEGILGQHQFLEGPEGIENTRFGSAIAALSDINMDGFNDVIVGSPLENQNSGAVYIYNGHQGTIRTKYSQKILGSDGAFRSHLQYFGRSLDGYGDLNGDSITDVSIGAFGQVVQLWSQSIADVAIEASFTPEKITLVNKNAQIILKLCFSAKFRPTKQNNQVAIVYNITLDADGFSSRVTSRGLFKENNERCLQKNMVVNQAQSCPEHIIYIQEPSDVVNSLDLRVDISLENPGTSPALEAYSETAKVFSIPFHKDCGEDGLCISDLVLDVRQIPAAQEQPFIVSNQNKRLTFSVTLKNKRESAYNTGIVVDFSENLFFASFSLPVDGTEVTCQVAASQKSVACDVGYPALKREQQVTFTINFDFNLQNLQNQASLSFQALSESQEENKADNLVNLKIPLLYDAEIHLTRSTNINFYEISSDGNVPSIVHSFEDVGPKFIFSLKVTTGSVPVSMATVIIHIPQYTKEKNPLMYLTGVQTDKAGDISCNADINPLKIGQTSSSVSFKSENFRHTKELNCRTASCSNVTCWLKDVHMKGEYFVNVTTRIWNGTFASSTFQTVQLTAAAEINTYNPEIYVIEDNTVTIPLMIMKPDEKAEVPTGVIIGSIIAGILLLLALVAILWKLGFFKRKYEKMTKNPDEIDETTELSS

Cytochrome P450 1A2 = target: T1, Cytochrome P450 1A2 (Homo sapiens, UniProt P05177); assay: Induction of CYP1A2 activity (unknown origin) relative to control; type: ADME
T1 sequence (P05177 whole entry): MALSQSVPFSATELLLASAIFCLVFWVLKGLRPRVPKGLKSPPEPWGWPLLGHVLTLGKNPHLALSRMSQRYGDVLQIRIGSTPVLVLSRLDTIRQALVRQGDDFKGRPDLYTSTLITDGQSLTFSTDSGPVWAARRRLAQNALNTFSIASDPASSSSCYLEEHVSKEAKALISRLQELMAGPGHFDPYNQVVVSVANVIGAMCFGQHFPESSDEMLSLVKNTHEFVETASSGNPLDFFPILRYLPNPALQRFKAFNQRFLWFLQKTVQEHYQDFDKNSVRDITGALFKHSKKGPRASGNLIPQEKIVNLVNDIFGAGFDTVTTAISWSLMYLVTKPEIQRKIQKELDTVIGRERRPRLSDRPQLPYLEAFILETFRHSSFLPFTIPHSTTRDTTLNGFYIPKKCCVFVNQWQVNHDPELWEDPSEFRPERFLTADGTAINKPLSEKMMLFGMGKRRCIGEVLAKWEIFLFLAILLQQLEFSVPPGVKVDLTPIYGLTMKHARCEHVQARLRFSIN

[2] = Initial plasma concentration in Sprague-Dawley rat at 4.8 mg/kg, iv administered as bolus dose by LC-MS/MS analysis; type: ADME, organism-based; design: dose 4.8 mg/kg, route intravenous
Cytochrome P450 3A4 [3] = target: T2, Cytochrome P450 3A4 (Homo sapiens, UniProt P08684); assay: Induction of CYP3A4 activity (unknown origin) relative to control; type: ADME
T2 sequence (P08684 whole entry): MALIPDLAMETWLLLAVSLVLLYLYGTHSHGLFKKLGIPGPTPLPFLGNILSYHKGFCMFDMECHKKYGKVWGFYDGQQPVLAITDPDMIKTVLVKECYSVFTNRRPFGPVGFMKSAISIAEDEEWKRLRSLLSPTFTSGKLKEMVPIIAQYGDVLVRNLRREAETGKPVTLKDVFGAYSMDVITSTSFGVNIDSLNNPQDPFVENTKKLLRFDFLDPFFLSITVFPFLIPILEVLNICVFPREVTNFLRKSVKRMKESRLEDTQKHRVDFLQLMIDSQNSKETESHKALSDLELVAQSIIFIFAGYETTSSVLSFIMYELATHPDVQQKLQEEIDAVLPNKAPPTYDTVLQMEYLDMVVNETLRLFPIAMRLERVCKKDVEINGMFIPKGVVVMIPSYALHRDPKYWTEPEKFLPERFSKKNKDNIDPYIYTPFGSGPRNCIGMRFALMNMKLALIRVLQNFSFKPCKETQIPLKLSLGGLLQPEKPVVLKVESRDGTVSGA

[4] = Lipophilicity, log D of the compound at pH 7.4 at 25 degC; type: physicochemical; details: buffer
Plasma [5] = assay: Metabolic stability in human plasma at 100 ng/mL measured after 4 hrs; type: ADME, cell-free
[6] = target: Integrin alpha1/beta1 complex (Homo sapiens, UniProt P05556+P56199); assay: Antagonist activity at integrin alpha1beta1 receptor (unknown origin) assessed as inhibition of interaction with biotinylated collagen type-1 after 3 hrs by solid phase ELISA-type assay; type: protein-complex assay
Integrin alpha1/beta1 complex, sequence (P05556 whole entry): as the sequence (P05556 whole entry) above
Integrin alpha1/beta1 complex, sequence (P56199 whole entry): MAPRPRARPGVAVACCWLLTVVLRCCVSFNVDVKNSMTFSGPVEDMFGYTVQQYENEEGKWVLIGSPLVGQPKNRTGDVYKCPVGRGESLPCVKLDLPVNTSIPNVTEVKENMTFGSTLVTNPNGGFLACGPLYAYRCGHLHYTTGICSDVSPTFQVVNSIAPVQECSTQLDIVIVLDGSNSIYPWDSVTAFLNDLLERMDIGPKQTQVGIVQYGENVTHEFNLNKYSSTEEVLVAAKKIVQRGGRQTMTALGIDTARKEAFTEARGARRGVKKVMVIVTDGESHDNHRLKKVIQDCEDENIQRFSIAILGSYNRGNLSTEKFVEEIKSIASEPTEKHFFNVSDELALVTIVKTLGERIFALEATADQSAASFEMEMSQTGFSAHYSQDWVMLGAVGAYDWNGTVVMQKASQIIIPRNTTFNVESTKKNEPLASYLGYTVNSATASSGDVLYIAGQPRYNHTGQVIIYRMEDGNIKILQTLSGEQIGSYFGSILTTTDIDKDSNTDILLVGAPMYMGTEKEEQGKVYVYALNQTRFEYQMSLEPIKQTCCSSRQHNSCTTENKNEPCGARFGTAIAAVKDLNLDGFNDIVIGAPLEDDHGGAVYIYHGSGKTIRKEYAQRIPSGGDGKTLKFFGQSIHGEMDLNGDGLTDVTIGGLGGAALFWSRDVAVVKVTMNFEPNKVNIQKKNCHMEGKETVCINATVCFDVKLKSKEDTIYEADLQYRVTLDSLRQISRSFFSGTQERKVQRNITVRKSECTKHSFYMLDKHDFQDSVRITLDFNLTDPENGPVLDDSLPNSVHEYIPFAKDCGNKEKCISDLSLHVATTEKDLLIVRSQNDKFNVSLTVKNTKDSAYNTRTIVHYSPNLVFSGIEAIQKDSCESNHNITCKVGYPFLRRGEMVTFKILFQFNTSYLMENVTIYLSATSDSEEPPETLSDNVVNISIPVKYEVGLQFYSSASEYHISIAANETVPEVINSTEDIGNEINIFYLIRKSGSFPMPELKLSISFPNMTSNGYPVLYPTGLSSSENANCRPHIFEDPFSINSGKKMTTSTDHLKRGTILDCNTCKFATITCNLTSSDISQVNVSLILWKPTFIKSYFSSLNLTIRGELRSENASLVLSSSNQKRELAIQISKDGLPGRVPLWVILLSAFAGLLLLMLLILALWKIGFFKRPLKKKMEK

[7] = Drug metabolism in human liver microsomes at 5 uM after 20 mins; type: ADME; details: read-out: Drug metabolism
[8] = Drug metabolism in Swiss CD-1 mouse liver microsomes at 5 uM after 20 mins; type: ADME, Microsome; details: read-out: Drug metabolism
[9] = Half life in Sprague-Dawley rat at 4.8 mg/kg, iv administered as bolus dose by LC-MS/MS analysis; type: ADME, organism-based; design: dose 4.8 mg/kg, route intravenous; details: in vivo
Cytochrome P450 3A4 [10] = target: T2, Cytochrome P450 3A4; assay: Inhibition of CYP3A4 (unknown origin) after 10 to 30 mins; type: ADME
Cytochrome P450 1A1 = target: T3, Cytochrome P450 1A1 (Homo sapiens, UniProt P04798); assay: Induction of CYP1A1 activity (unknown origin) relative to control; type: ADME
T3 sequence (P04798 whole entry): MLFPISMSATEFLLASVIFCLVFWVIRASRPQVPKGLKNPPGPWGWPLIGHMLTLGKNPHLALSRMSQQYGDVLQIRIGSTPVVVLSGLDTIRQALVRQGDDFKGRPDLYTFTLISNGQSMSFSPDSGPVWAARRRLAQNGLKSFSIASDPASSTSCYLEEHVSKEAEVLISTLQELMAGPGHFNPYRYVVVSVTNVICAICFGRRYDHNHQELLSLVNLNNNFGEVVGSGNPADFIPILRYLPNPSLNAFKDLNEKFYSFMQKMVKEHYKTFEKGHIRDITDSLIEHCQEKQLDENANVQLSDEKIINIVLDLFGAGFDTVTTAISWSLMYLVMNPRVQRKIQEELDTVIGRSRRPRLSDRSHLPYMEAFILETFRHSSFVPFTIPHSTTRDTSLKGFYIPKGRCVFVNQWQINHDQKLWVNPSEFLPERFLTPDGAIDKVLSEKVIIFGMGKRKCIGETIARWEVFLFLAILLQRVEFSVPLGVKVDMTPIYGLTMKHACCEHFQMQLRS

[11] = Drug excretion in Sprague-Dawley rat bile at 5 mg/kg, iv administered as bolus dose measured after 2 hrs by LC-MS/MS analysis; type: ADME, organism-based; design: dose 5 mg/kg, route intravenous; details: read-out: Drug excretion
Plasma [12] = assay: Metabolic stability in rat plasma at 100 ng/mL measured after 4 hrs; type: ADME, cell-free
[13] = Volume of distribution at steady state in Sprague-Dawley rat at 4.8 mg/kg, iv administered as bolus dose by LC-MS/MS analysis; type: ADME, organism-based; design: dose 4.8 mg/kg, route intravenous; details: in vivo, read-out: Vdss
[14] = Plasma concentration in Sprague-Dawley rat at 4.8 mg/kg, iv administered as bolus dose measured after 1 hr by LC-MS/MS analysis; type: ADME, organism-based; design: dose 4.8 mg/kg, route intravenous
[15] = Drug metabolism in Sprague-Dawley rat liver microsomes at 5 uM after 20 mins; type: ADME; details: read-out: Drug metabolism
Integrin alpha-5/beta-1 = Integrin alpha-5/beta-1 (Homo sapiens, UniProt P05556+P08648); assay: Antagonist activity at integrin alpha5beta1 receptor (unknown origin) assessed as inhibition of interaction with biotinylated collagen type-1 after 3 hrs by solid phase ELISA-type assay; type: protein-complex assay
[16] = Solubility of the compound at pH 7.4 at 25 degC; type: physicochemical; details: buffer
[17] = Drug excretion in Sprague-Dawley rat urine at 4.8 mg/kg, iv administered as bolus dose measured after 24 hrs by LC-MS/MS analysis; type: ADME, organism-based; design: dose 4.8 mg/kg, route intravenous; details: read-out: Drug excretion
Plasma [18] = assay: Metabolic stability in mouse plasma at 100 ng/mL measured after 4 hrs; type: ADME, cell-free
[19] = target: Voltage-gated inwardly rectifying potassium channel KCNH2 (Homo sapiens, UniProt Q12809); assay: Inhibition of human ERG expressed in CHO cells by patch clamp assay; type: cell-based
Voltage-gated inwardly rectifying potassium channel KCNH2, sequence (Q12809 whole entry): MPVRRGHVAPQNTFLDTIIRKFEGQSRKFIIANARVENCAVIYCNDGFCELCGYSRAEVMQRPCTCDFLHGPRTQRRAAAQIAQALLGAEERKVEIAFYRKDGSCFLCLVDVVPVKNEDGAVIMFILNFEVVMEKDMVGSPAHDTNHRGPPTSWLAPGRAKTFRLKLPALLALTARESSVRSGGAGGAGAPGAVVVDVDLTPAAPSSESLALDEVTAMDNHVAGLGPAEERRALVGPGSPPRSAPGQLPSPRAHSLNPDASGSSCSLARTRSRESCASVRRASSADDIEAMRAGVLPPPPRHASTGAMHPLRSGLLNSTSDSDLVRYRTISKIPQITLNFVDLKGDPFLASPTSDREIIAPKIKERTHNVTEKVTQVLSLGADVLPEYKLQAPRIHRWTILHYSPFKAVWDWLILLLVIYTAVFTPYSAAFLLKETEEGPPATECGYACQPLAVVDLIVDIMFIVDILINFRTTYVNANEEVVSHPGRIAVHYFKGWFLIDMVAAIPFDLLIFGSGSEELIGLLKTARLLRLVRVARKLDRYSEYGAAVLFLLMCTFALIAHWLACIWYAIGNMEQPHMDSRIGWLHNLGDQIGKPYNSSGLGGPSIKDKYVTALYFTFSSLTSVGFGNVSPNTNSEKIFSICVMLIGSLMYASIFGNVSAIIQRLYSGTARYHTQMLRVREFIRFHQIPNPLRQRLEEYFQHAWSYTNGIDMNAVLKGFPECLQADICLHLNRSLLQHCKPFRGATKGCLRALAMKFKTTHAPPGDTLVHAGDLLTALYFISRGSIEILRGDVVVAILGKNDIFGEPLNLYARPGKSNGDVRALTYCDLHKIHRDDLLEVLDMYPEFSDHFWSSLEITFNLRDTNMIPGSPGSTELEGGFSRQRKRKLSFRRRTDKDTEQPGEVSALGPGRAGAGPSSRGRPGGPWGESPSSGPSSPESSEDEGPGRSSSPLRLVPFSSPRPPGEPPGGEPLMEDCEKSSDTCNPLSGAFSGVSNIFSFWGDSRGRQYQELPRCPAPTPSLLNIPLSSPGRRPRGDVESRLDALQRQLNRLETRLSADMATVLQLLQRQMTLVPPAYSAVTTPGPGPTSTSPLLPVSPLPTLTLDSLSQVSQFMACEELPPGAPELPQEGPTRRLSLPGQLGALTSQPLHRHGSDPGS

## CCOC(=O)[C@@H]1Cc2cn(cn2)C/C=C/COc2ccc(Cl)c(c2)C(=O)N1
[1]
  Papp: > 2 ×10⁻⁶ cm/s

## COC(=O)[C@@H]1Cc2cn(cn2)C/C=C/COc2ccc(Cl)c(c2)C(=O)N1
[1]
  Papp: > 2 ×10⁻⁶ cm/s

## O=C1N[C@H](C(=O)O)Cc2cccc(c2)OC/C=C/COc2ccc1c(Cl)c2
Integrin alpha2/beta1
  IC50: 163 nM

## O=C1N[C@H](C(=O)O)Cc2cccc(c2)OCCCCOc2ccc1c(Cl)c2
Integrin alpha2/beta1
  IC50: 114 nM

## O=C1N[C@H](C(=O)O)Cc2cccc(c2)OC/C=C/COc2ccc(Cl)c1c2
Integrin alpha2/beta1
  IC50: 233 nM

## O=C1N[C@H](C(=O)O)Cc2cccc(c2)OCCCCOc2ccc(Cl)c1c2
Integrin alpha2/beta1
  IC50: 142 nM

## O=C1N[C@H](C(=O)O)Cc2cccc(c2)OC/C=C/COc2cccc(Cl)c21
Integrin alpha2/beta1
  IC50: 588 nM

## O=C1N[C@H](C(=O)O)Cc2cccc(c2)OCCCCOc2cccc(Cl)c21
Integrin alpha2/beta1
  IC50: 978 nM

## O=C1N[C@H](C(=O)O)Cc2ccc(cc2)OC/C=C/COc2cccc(Cl)c21
Integrin alpha2/beta1
  IC50: 178 nM

## O=C1N[C@H](C(=O)O)Cc2ccc(cc2)OCCCCOc2cccc(Cl)c21
Integrin alpha2/beta1
  IC50: 106 nM

## O=C1N[C@H](C(=O)O)Cc2ccc(cc2)OC/C=C/COc2ccc(Cl)c1c2
Integrin alpha2/beta1
  IC50: 101 nM

## O=C1N[C@H](C(=O)O)Cc2ccc(cc2)OCCCCOc2ccc(Cl)c1c2
Integrin alpha2/beta1
  IC50: 731 nM

## O=C1N[C@H](C(=O)O)Cc2cccc(c2)OCCCCOc2cccc1c2
Integrin alpha2/beta1
  IC50: > 10000 nM

## Cc1ccc2cc1C(=O)N[C@H](C(=O)O)Cc1cccc(c1)OCCCCO2
Integrin alpha2/beta1
  IC50: 745 nM

## Cc1ccc2cc1C(=O)N[C@H](C(=O)O)Cc1cccc(c1)OC/C=C/CO2
Integrin alpha2/beta1
  IC50: 1050 nM

## O=C1N[C@H](C(=O)O)Cc2cccc(c2)OC/C=C/COc2ccc1c(F)c2
Integrin alpha2/beta1
  IC50: > 1000 nM

## O=C1N[C@H](C(=O)O)Cc2cccc(c2)OCCCCOc2ccc1c(F)c2
Integrin alpha2/beta1
  IC50: > 4000 nM

## O=C1N[C@H](C(=O)O)Cc2cccc(c2)OC/C=C/COc2cccc(F)c21
Integrin alpha2/beta1
  IC50: > 1000 nM

## O=C1N[C@H](C(=O)O)Cc2cccc(c2)OCCCCOc2cccc(F)c21
Integrin alpha2/beta1
  IC50: > 1000 nM

## COc1cccc2c1C(=O)N[C@H](C(=O)O)Cc1cccc(c1)OCCCCO2
Integrin alpha2/beta1
  IC50: > 4000 nM

## O=C1N[C@H](C(=O)O)Cc2cccc(c2)OC/C=C/COc2ccc([N+](=O)[O-])c1c2
Integrin alpha2/beta1
  IC50: 667 nM

## O=C1N[C@H](C(=O)O)Cc2cccc(c2)OC/C=C/COc2cc(C(F)(F)F)c1cn2
Integrin alpha2/beta1
  IC50: 1900 nM

## O=C1N[C@H](C(=O)O)Cc2cccc(n2)NC/C=C/COc2ccc(Cl)c1c2
Integrin alpha2/beta1
  IC50: > 1000 nM

## O=C1N[C@H](C(=O)O)Cc2cccc(n2)NCCCCOc2ccc(Cl)c1c2
Integrin alpha2/beta1
  IC50: > 1000 nM

## O=C1N[C@H](C(=O)O)Cc2ccc(nc2)OC/C=C/COc2ccc(Cl)c1c2
Integrin alpha2/beta1
  IC50: 134 nM

## O=C1N[C@H](C(=O)O)Cc2ccc(nc2)OCCCCOc2ccc(Cl)c1c2
Integrin alpha2/beta1
  IC50: 792 nM

## O=C1N[C@H](C(=O)O)Cc2cn(c3ccccc23)C/C=C/COc2ccc(Cl)c1c2
Integrin alpha2/beta1
  IC50: 12 nM

## O=C1N[C@H](C(=O)O)Cn2cc(nn2)CCCCOc2ccc(Cl)c1c2
Integrin alpha2/beta1
  IC50: 1300 nM

## O=C1N[C@H](C(=O)O)Cc2cn(nn2)C/C=C/COc2ccc(Cl)c1c2
Integrin alpha2/beta1
  IC50: 34 nM

## O=C1N[C@H](C(=O)O)Cc2cn(nn2)CCCCOc2ccc(Cl)c1c2
Integrin alpha2/beta1
  IC50: 497 nM

## Cl.O=C1N[C@H](C(=O)O)Cc2cn(cn2)C/C=C/COc2ccc(Cl)c1c2
Cytochrome P450 1A2
  Activity: < 10%
[2]
  C0: 1700 ng/mL
[1]
  Papp: 0.1 ×10⁻⁶ cm/s
Cytochrome P450 3A4 [3]
  Activity: < 10%
[4]
  logD: 0.05
Plasma [5]
  Stability: Stable
[6]
  IC50: 33 nM
[7]
  metabolised at 20 min, 5 µM: 3%
[8]
  metabolised at 20 min, 5 µM: 0%
[9]
  half-life: 14.4 min
Cytochrome P450 3A4 [10]
  IC50: > 30000 nM
Cytochrome P450 1A1
  Activity: < 10%
[11]
  dose excreted at 2 h: 50%
Integrin alpha2/beta1
  IC50: 4 nM
Plasma [12]
  Stability: Stable
[13]
  Vd: 3.6 L/kg
[14]
  concentration at 1 h: < 10 ng/mL
[15]
  metabolised at 20 min, 5 µM: 0%
Integrin alpha-5/beta-1
  IC50: 74 nM
[16]
  solubility: 1540 µg/mL
[17]
  dose excreted at 24 h: 24%
Plasma [18]
  Stability: Stable
[19]
  IC50: > 10000 nM

## O=C1N[C@H](C(=O)O)Cc2cn(cn2)CCCCOc2ccc(Cl)c1c2
Integrin alpha2/beta1
  IC50: 366 nM

## O=C1N[C@@H](C(=O)O)Cc2cn(cn2)C/C=C/COc2ccc(Cl)c1c2
Integrin alpha2/beta1
  IC50: 909 nM

## O=C1N[C@@H](C(=O)O)Cc2cn(cn2)CCCCOc2ccc(Cl)c1c2
Integrin alpha2/beta1
  IC50: > 4000 nM

## O=C1N[C@H](C(=O)O)Cc2cn(cn2)C/C=C/COc2ccc(Cl)c1c2Cl
Integrin alpha2/beta1
  IC50: 869 nM

## O=C1N[C@H](C(=O)O)Cc2cn(cn2)C/C=C/COc2ccc(Cl)c1n2
Integrin alpha2/beta1
  IC50: 36 nM

## O=C1N[C@H](C(=O)O)Cc2ncn(c2Cl)C/C=C/COc2ccc(Cl)c1c2
Integrin alpha2/beta1
  IC50: > 4000 nM

## O=C1N[C@H](C(=O)O)Cc2cn(cn2)CCCCCOc2ccc(Cl)c1c2
Integrin alpha2/beta1
  IC50: 731 nM

## O=C1N[C@H](C(=O)O)Cc2cn(cn2)C/C=C/Cc2ccc(Cl)c1c2
Integrin alpha2/beta1
  IC50: 176 nM

## Cc1cccc(Cl)c1C(=O)N[C@@H](Cc1ccc(NC(=O)c2c(Cl)cccc2Cl)cc1)C(=O)O
Integrin alpha2/beta1
  IC50: 214 nM

## O=C1N[C@H](C(=O)O)Cn2cc(nn2)C/C=C/COc2ccc(Cl)c1c2 (mixture of isomers)
Integrin alpha2/beta1
  IC50: 38 nM

## O=C1N[C@H](C(=O)O)Cc2cn(cn2)C/C=C/COc2ccc1c(Cl)c2 (mixture of isomers)
Integrin alpha2/beta1
  IC50: 470 nM

## O=C1N[C@H](C(=O)O)Cc2cn(cn2)CC/C=C/COc2ccc(Cl)c1c2 (mixture of isomers)
Integrin alpha2/beta1
  IC50: 270 nM

## O=C1NC(C(=O)O)Cc2ccccc2OCCCCOc2ccc(Cl)c1c2 (racemic)
Integrin alpha2/beta1
  IC50: > 4000 nM

## O=C1NC(C(=O)O)CCc2cn(cn2)C/C=C/COc2ccc(Cl)c1c2 (racemic)
Integrin alpha2/beta1
  IC50: > 5000 nM

## O=C1NC(C(=O)O)CCc2cn(cn2)CCCCOc2ccc(Cl)c1c2 (racemic)
Integrin alpha2/beta1
  IC50: > 5000 nM
